Results on 8 compounds are retold here after patent publication US10945435B2, “Imidazopyrimidine derivatives with sulfur containing phenyl and pyridyl substituents” (SYNGENTA PARTICIPATIONS AG, priority 2017, dated 2021).

The melting point is the temperature, or range, at which the solid turns liquid. The term inhibition denotes how much of the control response was suppressed. The mortality is the percentage killed.

Series [1] deals with Spodoptera littoralis (Egyptian Cotton Leaf Worm). Kind of series: Example B15 Spodoptera littoralis growth inhibition activity. In kind it is in vivo. The note with it: foliar, 72 h, application rate of 200 ppm, L1 larvae on sprayed cotton leaf discs, 3 days after infestation, read-out: control (growth inhibition). The method, then: Spodoptera littoralis (Egyptian Cotton Leaf Worm): Growth Inhibition Activity
Cotton leaf discs were placed onto agar in 24-well microtiter plates and sprayed with aqueous test solutions prepared from 10,000 ppm DMSO stock solutions. After drying the leaf discs were infested with five L1 larvae. The samples were assessed for growth inhibition in comparison to untreated samples 3 days after infestation. Control of Spodoptera littoralis by a test sample is given when the growth inhibition is higher than the untreated sample.

The test system of series [2] is Euschistus heros (Neotropical Brown Stink Bug). Kind of series: Example B5 Euschistus heros mortality and growth inhibition. In kind it is in vivo. Particulars: 120 h, application rate of 200 ppm, N2 nymphs on sprayed soybean leaves, 5 days after infestation, read-out: effect in at least one of the two categories (mortality or growth inhibition). The method, then: Euschistus heros (Neotropical Brown Stink Bug)
Soybean leaves on agar in 24-well microtiter plates were sprayed with aqueous test solutions prepared from 10,000 ppm DMSO stock solutions. After drying the leaves were infested with N2 nymphs. The samples were assessed for mortality and growth inhibition in comparison to untreated samples 5 days after infestation.

Series [3] deals with Myzus persicae (Green Peach Aphid). The series is described as follows: Example B9 Myzus persicae feeding/contact activity. In kind it is in vivo. Particulars: foliar, 144 h, application rate of 200 ppm, mixed-age aphids on sprayed sunflower leaf discs, 6 days after infestation. The method, then: Myzus persicae (Green Peach Aphid): Feeding/Contact Activity
Sunflower leaf discs were placed onto agar in a 24-well microtiter plate and sprayed with aqueous test solutions prepared from 10,000 ppm DMSO stock solutions. After drying, the leaf discs were infested with an aphid population of mixed ages. The samples were assessed for mortality 6 days after infestation.

Series [4] relates to Euschistus heros (Neotropical Brown Stink Bug). Kind of series: Example B7 Euschistus heros feeding/contact activity. In kind it is in vivo. Particulars: 120 h, application rate of 200 ppm, N2 nymphs on sprayed soybean leaves, 5 days after infestation. The method, then: Euschistus heros (Neotropical Brown Stink Bug): Feeding/Contact Activity
Soybean leaves on agar in 24-well microtiter plates were sprayed with aqueous test solutions prepared from 10,000 ppm DMSO stock solutions. After drying the leaves were infested with N2 nymphs. The samples were assessed for mortality 5 days after infestation.

The subject of series [5] is Spodoptera littoralis (Egyptian Cotton Leaf Worm). Kind of series: Example B16 Spodoptera littoralis feeding/contact activity. The series is classed as in vivo. Particulars: foliar, 72 h, application rate of 200 ppm, L1 larvae on sprayed cotton leaf discs, 3 days after infestation. The method, then:
Spodoptera littoralis (Egyptian Cotton Leaf Worm): Feeding/Contact Activity
Cotton leaf discs were placed onto agar in 24-well microtiter plates and sprayed with aqueous test solutions prepared from 10,000 ppm DMSO stock solutions. After drying the leaf discs were infested with five L1 larvae. The samples were assessed for mortality 3 days after infestation.

The subject of series [6] is Plutella xylostella (Diamond Back Moth). Kind of series: Example B12 Plutella xylostella feeding/contact activity. The note with it: 120 h, application rate of 200 ppm, L2 larvae on treated artificial diet, 5 days after infestation. The series is classed as in vivo. The method, then: Plutella xylostella (Diamond Back Moth): Feeding/Contact Activity
24-well microtiter plates with artificial diet were treated with aqueous test solutions prepared from 10,000 ppm DMSO stock solutions by pipetting. After drying, the plates were infested with L2 larvae (10 to 15 per well). The samples were assessed for mortality 5 days after infestation.

Series [7] has the same test system. The series is described as follows: Example B13 Plutella xylostella mortality and growth inhibition. In kind it is in vivo. The note with it: 120 h, application rate of 200 ppm, L2 larvae on treated artificial diet, 5 days after infestation, read-out: effect in at least one of the two categories (mortality or growth inhibition). The method, then: Plutella xylostella (Diamond Back Moth)
24-well microtiter plates with artificial diet were treated with aqueous test solutions prepared from 10,000 ppm DMSO stock solutions by pipetting. After drying, the plates were infested with L2 larvae (10 to 15 per well). The samples were assessed for mortality and growth inhibition in comparison to untreated samples 5 days after infestation.

Series [8] has as its system Diabrotica balteata (Corn Root Worm). Kind of series: Example B4 Diabrotica balteata mortality. In kind it is in vivo. The note with it: 96 h, application rate of 200 ppm, L2 larvae on sprayed maize sprouts, 4 days after infestation. The method, then: (§1) Diabrotica Balteata (Corn Root Worm):
Maize sprouts placed onto an agar layer in 24-well microtiter plates were treated with aqueous test solutions prepared from 10,000 ppm DMSO stock solutions by spraying. After drying, the plates were infested with L2 larvae (6 to 10 per well). The samples were assessed for mortality 4 days after infestation.

Series [9] has as its system Spodoptera littoralis (Egyptian Cotton Leaf Worm). The series is described as follows: Example B14 Spodoptera littoralis anti-feeding activity. In kind it is in vivo. Particulars: foliar, 72 h, application rate of 200 ppm, L1 larvae on sprayed cotton leaf discs, 3 days after infestation, read-out: control (anti-feeding effect). The method, then:
Spodoptera littoralis (Egyptian Cotton Leaf Worm): Anti-Feeding Activity
Cotton leaf discs were placed onto agar in 24-well microtiter plates and sprayed with aqueous test solutions prepared from 10,000 ppm DMSO stock solutions. After drying the leaf discs were infested with five L1 larvae. The samples were assessed for anti-feeding effect in comparison to untreated samples 3 days after infestation. Control of Spodoptera littoralis by a test sample is given when the anti-feedant effect is higher than the untreated sample.

In series [10] the test system is Bemisia tabaci (Cotton White Fly). The series is described as follows: Example B1 Bemisia tabaci feeding/contact activity. In kind it is in vivo. Particulars: foliar, 144 h, application rate of 200 ppm, adult white flies on sprayed cotton leaf discs, 6 days after incubation. The method, then: Bemisia tabaci (Cotton White Fly): Feeding/Contact Activity
Cotton leaf discs were placed on agar in 24-well microtiter plates and sprayed with aqueous test solutions prepared from 10,000 ppm DMSO stock solutions. After drying the leaf discs were infested with adult white flies. The samples were checked for mortality 6 days after incubation.

In series [11] the test system is Diabrotica balteata (Corn Root Worm). The series is described as follows: Example B2 Diabrotica balteata mortality and growth inhibition. The series is classed as in vivo. The note with it: 96 h, application rate of 200 ppm, L2 larvae on sprayed maize sprouts, 4 days after infestation, read-out: effect in at least one of the two categories (mortality or growth inhibition). The method, then: Diabrotica balteata (Corn Root Worm)
Maize sprouts placed onto an agar layer in 24-well microtiter plates were treated with aqueous test solutions prepared from 10,000 ppm DMSO stock solutions by spraying. After drying, the plates were infested with L2 larvae (6 to 10 per well). The samples were assessed for mortality and growth inhibition in comparison to untreated samples 4 days after infestation.

Series [12] has as its system Frankliniella occidentalis (Western Flower Thrips). The series is described as follows: Example B8 Frankliniella occidentalis feeding/contact activity. The series is classed as in vivo. Particulars: foliar, 168 h, application rate of 200 ppm, mixed-age population on sprayed sunflower leaf discs, 7 days after infestation. The method, then: Frankliniella occidentalis (Western Flower Thrips): Feeding/Contact Activity
Sunflower leaf discs were placed on agar in 24-well microtiter plates and sprayed with aqueous test solutions prepared from 10,000 DMSO stock solutions. After drying the leaf discs were infested with a Frankliniella population of mixed ages. The samples were assessed for mortality 7 days after infestation.

For series [13], the system named is Myzus persicae (Green Peach Aphid). The series is described as follows: Example B10 Myzus persicae systemic activity. In kind it is in vivo. Particulars: 144 h, test rate of 24 ppm, roots of infested pea seedlings in test solution, 6 days. The method, then:
Myzus persicae (Green Peach Aphid). Systemic Activity
Roots of pea seedlings infested with an aphid population of mixed ages were placed directly into aqueous test solutions prepared from 10,000 DMSO stock solutions. The samples were assessed for mortality 6 days after placing seedlings into test solutions.

Series [14] concerns Plutella xylostella (Diamond Back Moth). The series is described as follows: Example B11 Plutella xylostella growth inhibition activity. In kind it is in vivo. The note with it: 120 h, application rate of 200 ppm, L2 larvae on treated artificial diet, 5 days after infestation. The method, then:
Plutella xylostella (Diamond Back Moth): Growth Inhibition Activity
24-well microtiter plates with artificial diet were treated with aqueous test solutions prepared from 10,000 ppm DMSO stock solutions by pipetting. After drying, the plates were infested with L2 larvae (10 to 15 per well). The samples were assessed for growth inhibition in comparison to untreated samples 5 days after infestation. Control of Plutella xylostella by a test sample is given when the growth inhibition is higher than the untreated sample.

For series [15], the system named is Diabrotica balteata (Corn Root Worm). The series is described as follows: Example B3 Diabrotica balteata growth inhibition. The series is classed as in vivo. The note with it: 96 h, application rate of 200 ppm, L2 larvae on sprayed maize sprouts, 4 days after infestation. The method, then: as §1
Maize sprouts placed onto an agar layer in 24-well microtiter plates were treated with aqueous test solutions prepared from 10,000 ppm DMSO stock solutions by spraying. After drying, the plates were infested with L2 larvae (6 to 10 per well). The samples were assessed for growth inhibition in comparison to untreated samples 4 days after infestation. Control of Diabrotica balteata by a test sample is given when the growth inhibition is higher than in the untreated sample.

`CCS(=O)(=O)c1cc(O)cnc1-c1cn2cnc(C(F)(F)F)cc2n1` [Compound P10, 5-ethylsulfonyl-6-[7-(trifluoromethyl)imidazo[1,2-c]pyrimidin-2-yl]pyridin-3-ol]: the melting point lay within 229 to 232 °C.
Still for that read-out and setting: in the case of `CCS(=O)(=O)c1cc(OCS(C)(=O)=O)cnc1-c1cn2cnc(C(F)(F)C(F)(F)F)cc2n1` [Compound P26, 2-[3-ethylsulfonyl-5-(methylsulfonylmethoxy)-2-pyridyl]-7-(1,1,2,2,2-pentafluoroethyl)imidazo[1,2-c]pyrimidine] it was 248 to 250 °C; in that of `CCS(=O)(=O)c1cc(O)cnc1-c1nc2cc(C(F)(F)F)ncn2c1Br` [Compound P27, 6-[3-bromo-7-(trifluoromethyl)imidazo[1,2-c]pyrimidin-2-yl]-5-ethylsulfonyl-pyridin-3-ol], 230 to 234 °C.
`CCS(=O)(=O)c1cc(OC(C)(C)C#N)cnc1-c1cn2cnc(SC(F)(F)F)cc2n1` [Compound P17, 2-[[5-ethylsulfonyl-6-[7-(trifluoromethylsulfanyl)imidazo[1,2-c]pyrimidin-2-yl]-3-pyridyl]oxy]-2-methyl-propanenitrile]: in [1], the inhibition at 200 ppm is at least 80%. Further, the percent effect (mortality or growth inhibition) at 200 ppm in series [2], in series [7] and in series [11] was at least 80% in each case. Also, the mortality at 200 ppm in series [3], in series [4], in series [5], in series [6], in series [8] and in series [10] was at least 80% in each case. Besides, in [12], the mortality at 200 ppm is at least 80%. Also, the pest or weed control at 200 ppm in series [9] is at least 80%.
Compound `CCS(=O)(=O)c1cc(OCC(F)(F)F)cnc1-c1nc2cc(C(F)(F)F)ncn2c1Br` [Compound P25, 3-bromo-2-[3-ethylsulfonyl-5-(2,2,2-trifluoroethoxy)-2-pyridyl]-7-(trifluoromethyl)imidazo[1,2-c]pyrimidine] had a melting point of 86 to 88 °C.
Same read-out and setting: in the case of `CCS(=O)(=O)c1cc(OCCS(C)(=O)=O)cnc1-c1cn2cnc(C(F)(F)F)cc2n1` [Compound P24, 2-[3-ethylsulfonyl-5-(2-methylsulfonylethoxy)-2-pyridyl]-7-(trifluoromethyl)imidazo[1,2-c]pyrimidine] it was 209 to 210 °C.
In turn, `CCS(=N)(=O)c1cc(OC(C)(C)C#N)cnc1-c1cn2cnc(C(F)(F)F)cc2n1` (stereo not drawn) [Compound P20, 2-[[5-(ethylsulfonimidoyl)-6-[7-(trifluoromethyl)imidazo[1,2-c]pyrimidin-2-yl]-3-pyridyl]oxy]-2-methyl-propanenitrile] gave a mortality at 24 ppm in [13] of at least 80%. Besides, the mortality at 200 ppm in series [3], in [5], in [6], in series [8] and in series [10] was at least 80% in each case. Also, the inhibition at 200 ppm in series [14] and in series [15] was at least 80% in each case. The percent effect (mortality or growth inhibition) at 200 ppm in series [7] and in series [11] was at least 80% each time. Moreover, in series [9], the pest or weed control at 200 ppm was at least 80%.
Take `CCS(=N)(=O)c1cc(OC(C)(C)C#N)cnc1-c1cn2cnc(C(F)(F)C(F)(F)F)cc2n1` (stereo not drawn) [Compound P19, 2-[[5-(ethylsulfonimidoyl)-6-[7-(1,1,2,2,2-pentafluoroethyl)imidazo[1,2-c]pyrimidin-2-yl]-3-pyridyl]oxy]-2-methyl-propanenitrile]: the inhibition at 200 ppm in series [1] and in series [14] was at least 80% in each case. In series [13], the mortality at 24 ppm was at least 80%. Moreover, the percent effect (mortality or growth inhibition) at 200 ppm in series [2], in series [7] and in [11] was at least 80% throughout. Also, the mortality at 200 ppm in [3], in series [4], in series [5], in series [6], in [8] and in series [10] was at least 80% in each case. This compound registered a mortality at 200 ppm in series [12] of at least 80%. The pest or weed control at 200 ppm in [9] is at least 80%.
